Measurements published in ChEMBL document CHEMBL5370692, “Synthesis and Evaluation of Small Molecule Inhibitors of the Androgen Receptor N-Terminal Domain” (ACS Med Chem Lett, 2023).

Biological target: T1, Androgen receptor (Homo sapiens, UniProt P10275)
T1 sequence (P10275 whole entry): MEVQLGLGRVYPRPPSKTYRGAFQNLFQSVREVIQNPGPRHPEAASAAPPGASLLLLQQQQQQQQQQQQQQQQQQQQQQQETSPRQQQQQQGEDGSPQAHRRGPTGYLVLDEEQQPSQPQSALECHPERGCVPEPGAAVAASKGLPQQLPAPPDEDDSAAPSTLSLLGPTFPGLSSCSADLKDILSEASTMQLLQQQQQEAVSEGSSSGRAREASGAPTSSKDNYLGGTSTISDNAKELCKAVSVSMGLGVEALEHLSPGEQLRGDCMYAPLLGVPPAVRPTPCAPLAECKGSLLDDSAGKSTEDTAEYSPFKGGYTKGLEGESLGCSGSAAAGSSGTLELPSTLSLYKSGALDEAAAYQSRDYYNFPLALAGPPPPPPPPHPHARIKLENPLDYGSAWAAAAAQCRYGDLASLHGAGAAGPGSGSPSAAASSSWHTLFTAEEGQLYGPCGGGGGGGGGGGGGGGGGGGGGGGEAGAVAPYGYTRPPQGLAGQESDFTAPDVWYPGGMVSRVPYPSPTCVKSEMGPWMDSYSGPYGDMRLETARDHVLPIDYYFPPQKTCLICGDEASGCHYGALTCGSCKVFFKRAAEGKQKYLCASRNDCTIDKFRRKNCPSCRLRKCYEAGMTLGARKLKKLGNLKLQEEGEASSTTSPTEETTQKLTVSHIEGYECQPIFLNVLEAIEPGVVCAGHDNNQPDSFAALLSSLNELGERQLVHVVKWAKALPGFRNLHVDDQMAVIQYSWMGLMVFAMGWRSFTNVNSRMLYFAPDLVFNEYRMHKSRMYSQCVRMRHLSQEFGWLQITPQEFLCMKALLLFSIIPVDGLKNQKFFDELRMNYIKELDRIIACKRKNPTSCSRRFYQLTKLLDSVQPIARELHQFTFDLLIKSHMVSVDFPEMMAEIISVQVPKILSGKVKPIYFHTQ
Test: Inhibition of androgen receptor in human VCaP cells expressing GRE-2-TATA-Luc co-expressing firefly luciferase incubated for 24 hrs in presence of DHT by luciferase reporter gene assay
Format: cell-based

IC50: 800 nM
SMILES: CSc1ccc(C(N)=O)cc1-c1ccc2cnccc2c1
